Data from publication PMC11684530 (ACS Omega, 2024).

Molecular target: T1, COX-2 (cyclooxygenase-2) (Homo sapiens, UniProt P35354)
T1 sequence (P35354 18-604): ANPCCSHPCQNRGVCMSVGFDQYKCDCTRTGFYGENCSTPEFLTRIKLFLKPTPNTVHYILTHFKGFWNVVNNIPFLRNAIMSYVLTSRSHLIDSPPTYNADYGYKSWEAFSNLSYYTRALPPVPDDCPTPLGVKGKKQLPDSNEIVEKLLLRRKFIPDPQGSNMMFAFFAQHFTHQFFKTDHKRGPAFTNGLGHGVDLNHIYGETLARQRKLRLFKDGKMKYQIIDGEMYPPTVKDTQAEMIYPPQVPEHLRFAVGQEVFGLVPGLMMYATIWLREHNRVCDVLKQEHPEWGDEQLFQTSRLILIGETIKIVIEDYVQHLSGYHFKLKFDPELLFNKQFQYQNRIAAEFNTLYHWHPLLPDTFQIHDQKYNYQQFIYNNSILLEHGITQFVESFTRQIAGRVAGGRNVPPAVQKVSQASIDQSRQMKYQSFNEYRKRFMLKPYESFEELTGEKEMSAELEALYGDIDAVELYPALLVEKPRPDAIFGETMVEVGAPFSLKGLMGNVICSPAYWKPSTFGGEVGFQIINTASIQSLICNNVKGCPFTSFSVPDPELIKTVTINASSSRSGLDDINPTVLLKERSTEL
Experiment: fluorometric COX-2 inhibitor screening kit
Type: biochemical

IC50 [µM]	SMILES
6.76	CC(C)=CCc1c(O)cc(O)c2c(=O)cc(-c3ccccc3)oc12 [compound 8, 5,7-Dihydroxy-8-(3-methylbut-2-en-1-yl)-2-phenyl-4H-chromen-4-one]
18.5	O=c1cc(-c2ccccc2)oc2cc(O)cc(O)c12 [chrysin]
9.63	O=c1cc(-c2ccccc2)oc2cc(O)c(CCO)c(O)c12 [1a, 5,7-Dihydroxy-6-(2-hydroxyethyl)-2-phenyl-4H-chromen-4-one]
